# From patent publication US8618129B2, “Substituted 1-oxo-dihydroisoquinoline-3-carboxamides as KCNQ2/3 modulators” (Gruenenthal GmbH, priority 2010, dated 2013)
# Tests used:
# KCNQ2/3 channels = target: T1, KCNQ2/3 channels (Homo sapiens, UniProt O43525+O43526); test: Fluorescence assay using a voltage sensitive dye (fluorimetry); assay type: cell-based; settings: CHO-K1 cells expressing KCNQ2/3 channels; for Emax: agonistic efficacy relative to retigabine = 100%
# T1 construct: expressed in transfected cells; host or cells: CHO-K1 cells, kept under selection antibiotics
# Experimental: Method I. Fluorescence Assay Using a Voltage Sensitive Dye
# […] CHO-K1 cells expressing KCNQ2/3 channels are cultivated adherently at 37° C., 5% CO2 and 95% humidity in cell culture bottles (e.g. 80 cm^2 TC flasks, Nunc) with DMEM-high glucose (Sigma Aldrich, D7777) including 10% FCS (PAN Biotech, e.g. 3302-P270521) or alternatively MEM Alpha Medium (1×, liquid, Invitrogen, #22571), 10% fetal calf serum (FCS) (Invitrogen, #10270-106, heat-inactivated) and the necessary selection antibiotics.
# Before being sown out for the measurements, the cells are washed with a 1× DPBS buffer without Ca^2+/Mg^2+ (e.g. Invitrogen, #14190-094) and detached from the bottom of the culture vessel by means of Accutase (PAA Laboratories, #L11-007) (incubation with Accutase for 15 min at 37° C.). The cell count then present is determined using a CASY™ cell counter (TCC model, Schärfe System) in order subsequently to apply, depending on the density optimization for the individual cell line, 20,000-30,000 cells/well/100 μl of the described nutrient medium to 96-well measuring plates of the Corning™ CellBIND™ type (Flat Clear Bottom Black Polystyrene Microplates, #3340). Incubation is then carried out for one hour at room temperature, without gassing or adjusting the humidity, followed by incubation for 24 hours at 37° C., 5% CO2 and 95% humidity.
# The voltage-sensitive fluorescent dye from the Membrane Potential Assay Kit (Red™ Bulk format part R8123 for FLIPR, MDS Analytical Technologies™) is prepared by dissolving the contents of a vessel Membrane Potential Assay Kit Red Component A in 200 ml of extracellular buffer (ES buffer, 120 mM NaCl, 1 mM KCl, 10 mM HEPES, 2 mM CaCl2, 2 mM MgCl2, 10 mM glucose; pH 7.4). After removal of the nutrient medium, the cells are washed with 200 μl of ES buffer, then covered with a layer of 100 μl of the dye solution prepared above and incubated for 45 min at room temperature with the exclusion of light.
# The fluorescence measurements are carried out with a BMG Labtech FLUOstar™, BMG Labtech NOVOstar™ or BMG Labtech POLARstar™ instrument (525 nm excitation, 560 nm emission, Bottom Read mode). After incubation of the dye, 50 μl of the test substances in the desired concentrations, or 50 μl of ES buffer for control purposes, are introduced into separate cavities of the measuring plate and incubated for 30 min at room temperature while being shielded from light. The fluorescence intensity of the dye is then measured for 5 min and the fluorescence value F1 of each well is thus determined at a given, constant time. 15 μl of a […] KCl solution ([…]) are then added to each well. The change in fluorescence is subsequently measured until all the relevant measured values have been obtained (mainly 5-30 min). At a given time after KCl application, a fluorescence value F2 is determined, in this case at the time of the fluorescence peak.
# For calculation, the fluorescence intensity F2 is compared with the fluorescence intensity F1, and the agonistic activity of the target compound on the potassium channel is determined therefrom. F2 and F1 are calculated as follows: […]
# A substance has an agonistic activity on the potassium channel when
# [formula] is to be observed as the dosage of the target compound increases. Calculations of EC50 and IC50 values are carried out with the aid of ‘Prism v4.0’ software (GraphPad Software™).
# [1] = test system: withdrawal reflex of the rat tail (tail flick); test: Low-intensity tail flick test (rat); assay type: in vivo; settings: dose 10.00 mg/kg (in brackets in the cell)
# Experimental: Method II. Low-Intensity Tail Flick Test (Rat)
# In the low-intensity tail flick test, the determination of the antinociceptive effect of the compounds according to the invention towards an acute noxious thermal stimulus is carried out by measuring the withdrawal reflex of the rat tail (tail flick) in response to a radiant heat beam (analgesia meter; model 2011 of the company Rhema Labortechnik, Hofheim, Germany) according to the method described by D'Amour and Smith (J. Pharm. Exp. Ther. 72, 74 79 (1941). To this end, the rats were placed in a plexiglas restrainer, and a low-intensity radiant heat beam (48° C.) was focused onto the dorsal surface of the tail root. The stimulus intensity was adjusted to result in a mean pre-drug control withdrawal latency of about 7 s, thus also allowing a supraspinal modulation of the spinally mediated acute nociceptive reflex. […] Before administration of a compound according to the invention, the animals were pre-tested twice in the course of five minutes and the mean of these measurements was calculated as the pre-test mean. The antinociceptive effect was determined at 20, 40 and 60 min after peroral compound administration. The antinociceptive effect was calculated based on the increase in the tail withdrawal latency according to the following formula and is expressed as percentage of the maximum possible effect (MPE [%]): MPE=[(T1−T0)/(T2−T0)]*100 […]
structure (smiles),measurement,setting,value
"Cc1c(C(=O)NCc2cccc(F)c2)n(C)c(=O)c2cc(C(F)(F)F)ccc12 [Example 1, N-(3-fluorobenzyl)-2,4-dimethyl-1-oxo-7-(trifluoromethyl)-1,2-dihydroisoquinoline-3-carboxamide]",EC50,KCNQ2/3 channels,1950 nM
same,Emax,KCNQ2/3 channels,164%
"Cc1c(C(=O)NCc2cccc(F)c2)n(C(C)C)c(=O)c2cc(C(F)(F)F)ccc12 [Example 4, N-(3-fluorobenzyl)-2-isopropyl-4-methyl-1-oxo-7-(trifluoromethyl)-1,2-dihydroisoquinoline-3-carboxamide]",EC50,KCNQ2/3 channels,381 nM
same,Emax,KCNQ2/3 channels,144%
"CCn1c(C(=O)NCc2cccc(F)c2)c(C)c2ccc(C(F)(F)F)cc2c1=O [Example 3, 2-ethyl-N-(3-fluorobenzyl)-4-methyl-1-oxo-7-(trifluoromethyl)-1,2-dihydroisoquinoline-3-carboxamide]",EC50,KCNQ2/3 channels,196 nM
same,Emax,KCNQ2/3 channels,103%
"COCCn1c(C(=O)NCc2cccc(F)c2)c(C)c2ccc(C(F)(F)F)cc2c1=O [Example 5, N-(3-fluorobenzyl)-2-(2-methoxyethyl)-4-methyl-1-oxo-7-(trifluoromethyl)-1,2-dihydroisoquinoline-3-carboxamide]",EC50,KCNQ2/3 channels,283 nM
same,Emax,KCNQ2/3 channels,87%
"CCCn1c(C(=O)NCc2cccc(F)c2)c(C)c2ccc(C(F)(F)F)cc2c1=O [Example 2, N-(3-fluorobenzyl)-4-methyl-1-oxo-2-propyl-7-(trifluoromethyl)-1,2-dihydroisoquinoline-3-carboxamide]","Low intensity tail flick, rat, peroral, % MPE (dose [mg/kg])",[1],10 (10.00) % MPE
same,EC50,KCNQ2/3 channels,124 nM
same,Emax,KCNQ2/3 channels,134%
